Data: paper PMC4978154, “Phase I metabolites of mephedrone display biological activity as substrates at monoamine transporters” (British Journal of Pharmacology, 2016)
Where “and” joins values, the source holds several entries; their conditions need not be identical. Identical values can stand only once. Like-named read-outs stand apart in the source and are kept apart here.

Tests used:
[1] = target: T1, NET (Rattus norvegicus, UniProt Q63380); test: Transporter release assay in rat brain synaptosomes, NET; format: biochemical; conditions: [3H]-MPP+, mean (95% confidence interval)
T1 construct: a native tissue preparation that contains plasma membrane transporters in situ; from tissue; host or cells: rat whole brain minus striatum and cerebellum, synaptosomes
T1 sequence (Q63380 1-617): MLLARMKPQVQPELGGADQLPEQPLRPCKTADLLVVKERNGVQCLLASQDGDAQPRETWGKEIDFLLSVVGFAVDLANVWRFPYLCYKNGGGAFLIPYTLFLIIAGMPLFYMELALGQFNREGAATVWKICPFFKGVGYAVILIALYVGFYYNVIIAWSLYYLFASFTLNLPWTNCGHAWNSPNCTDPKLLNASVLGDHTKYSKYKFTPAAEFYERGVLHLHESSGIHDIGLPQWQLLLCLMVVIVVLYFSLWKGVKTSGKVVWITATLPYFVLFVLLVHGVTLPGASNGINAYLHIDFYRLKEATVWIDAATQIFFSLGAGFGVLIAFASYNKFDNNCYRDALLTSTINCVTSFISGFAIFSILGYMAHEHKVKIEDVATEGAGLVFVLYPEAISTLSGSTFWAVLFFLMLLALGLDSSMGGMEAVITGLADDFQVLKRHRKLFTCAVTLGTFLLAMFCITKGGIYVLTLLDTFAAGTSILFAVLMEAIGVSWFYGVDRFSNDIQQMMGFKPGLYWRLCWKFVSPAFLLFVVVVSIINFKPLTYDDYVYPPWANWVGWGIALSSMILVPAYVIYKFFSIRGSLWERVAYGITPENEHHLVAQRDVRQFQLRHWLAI
Experimental: (§1) The ability of mephedrone and its metabolites to evoke release via DAT, NET and SERT was determined in rat brain synaptosomes as previously described (Baumann et al., 2012). Rats were killed with CO2, decapitated, and brains were rapidly removed and dissected on ice. Synaptosomes were prepared from striatum for DAT assays, whereas synaptosomes were prepared from whole brain minus striatum and cerebellum for the NET and SERT assays. [^3H]‐MPP^+ (9 nM) was used as the radiolabelled substrate for DAT and NET, whereas [^3H]‐5‐HT (5 nM) was used as the radiolabelled substrate for SERT. All buffers used in the release assays contained 1 μM reserpine to block vesicular uptake of substrates. The selectivity of assays was optimized for a single transporter by including unlabelled compounds [nomifensine and 1‐(2‐diphenylmethoxyethyl)‐4‐(3‐phenylpropyl)piperazine dihydrochloride (GBR12935) for SERT; GBR12935 and citalopram for NET; citalopram and desipramine for DAT] to prevent the uptake of [^3H]‐MPP^+ or [^3H]‐5‐HT by competing transporters. Synaptosomes were preloaded with radiolabelled substrate in Krebs‐phosphate buffer, which consisted of 126 mM NaCl, 2.4 mM KCl, 0.5 mM KH2PO4, 1.1 mM CaCl2, 0.83 mM MgCl2, 0.5 mM Na2SO4, 11.1 mM glucose, 13.7 mM Na2HPO4, 1 mg·mL^−1 ascorbic acid and 50 μM pargyline (pH = 7.4) for 1 h (steady state). […] Assays were terminated by vacuum filtration, and retained radioactivity was quantified by liquid scintillation counting.
(§2) Calculations were performed using Microsoft Excel® 2010 (Microsoft Corporation, Redmond, WA, USA) and GRAPHPAD PRISM 5.0. […] IC50 values for uptake inhibition and EC50 values for release were determined by nonlinear regression fits. Release data expressed as AUC were analysed by one‐way ANOVA followed by Bonferroni's multiple comparison test. Microdialysis and locomotor data were analysed by two‐way ANOVA (drug treatment × time) followed by Bonferroni's test. The effect of monensin treatment on basal efflux of tritiated substrate was analysed with the Mann–Whitney test. […]

[2] = target: T2, hDAT (Homo sapiens, UniProt Q01959); test: Transporter release (superfusion) assay in HEK293 cells expressing hDAT; format: cell-based; conditions: test drug 10 μM, monensin 10 μM; post hoc Bonferroni
T2 construct: expressed in transfected cells
T2 sequence (Q01959 whole entry, the tested form may be a part): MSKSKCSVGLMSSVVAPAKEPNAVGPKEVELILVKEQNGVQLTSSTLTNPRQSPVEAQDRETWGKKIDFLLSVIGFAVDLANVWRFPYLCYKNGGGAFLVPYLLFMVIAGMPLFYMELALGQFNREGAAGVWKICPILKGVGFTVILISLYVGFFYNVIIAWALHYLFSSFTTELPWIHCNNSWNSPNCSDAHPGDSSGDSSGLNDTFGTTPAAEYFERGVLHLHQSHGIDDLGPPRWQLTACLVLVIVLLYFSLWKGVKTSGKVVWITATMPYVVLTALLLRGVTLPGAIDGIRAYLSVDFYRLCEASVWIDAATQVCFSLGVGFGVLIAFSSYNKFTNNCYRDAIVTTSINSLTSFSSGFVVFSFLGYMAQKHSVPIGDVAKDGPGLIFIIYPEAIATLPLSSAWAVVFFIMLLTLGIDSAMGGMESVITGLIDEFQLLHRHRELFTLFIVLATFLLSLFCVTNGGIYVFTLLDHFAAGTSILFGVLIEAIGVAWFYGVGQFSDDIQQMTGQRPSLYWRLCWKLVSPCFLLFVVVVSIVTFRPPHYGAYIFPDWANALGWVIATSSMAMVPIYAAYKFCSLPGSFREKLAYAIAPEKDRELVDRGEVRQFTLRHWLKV
Experimental: The generation of HEK293 cells stably expressing the human isoforms of DAT (hDAT) and NET (hNET) was carried out as described previously (Scholze et al., 2002). For SERT, the human isoform (hSERT) was cloned in frame with yellow fluorescent protein (Schmid et al., 2001). The generation of a stable cell line was performed as described by Hilber and colleagues (Hilber et al., 2005). HEK293 cells were maintained in humidified atmosphere (5% CO2, 37°C) in DMEM, supplemented with 10% heat‐inactivated FBS and penicillin (100 u 100 mL^−1) and streptomycin (100 μg 100 mL^−1). Selection pressure was maintained by adding geneticin (50 μg·mL^−1) to the cell culture media.
Superfusion experiments were performed as described previously (Scholze et al., 2002). Briefly, HEK293 cells expressing the desired transporter were seeded at a density of 40 000 cells per well onto poly‐D‐lysine‐coated 5 mm glass cover slips in 96‐well plates 24 h prior to the experiment. Cells were preloaded with [^3H]‐MPP^+ (0.1 μM, hDAT and hNET) or [^3H]‐5‐HT (0.4 μM, hSERT) for 20 min at 37°C in a final volume of 100 μL per well. Subsequently, glass coverslips were transferred into small superfusion chambers (volume of 200 μL) and superfused with KHB at 25°C with a superfusion rate of 0.7 mL·min^−1 for 40 min to establish a stable basal efflux. After washout, the collection of 2‐min fractions was initiated. After the first three basal fractions, monensin (10 μM) or solvent was added for four fractions. Consequently, the cells were challenged with test drugs (10 μM) for five fractions in the presence or absence of monensin. Finally, the cells were lysed in 1% SDS to determine the total radioactivity. Radioactivity per fraction was assessed by a liquid scintillation counter and expressed as fractional release, that is, the percentage of released ^3H in relation to total ^3H present at the beginning of the fraction (Sitte et al., 2000). For analysis, release was expressed as AUC.
(§3) Calculations were performed using Microsoft Excel® 2010 (Microsoft Corporation, Redmond, WA, USA) and GRAPHPAD PRISM 5.0. (GraphPad Software Inc., La Jolla, CA, USA). IC50 values for uptake inhibition and EC50 values for release were determined by nonlinear regression fits. Release data expressed as AUC were analysed by one‐way ANOVA followed by Bonferroni's multiple comparison test. Microdialysis and locomotor data were analysed by two‐way ANOVA (drug treatment × time) followed by Bonferroni's test. The effect of monensin treatment on basal efflux of tritiated substrate was analysed with the Mann–Whitney test. P values less than 0.05 (i.e. P < 0.05) were considered significant. The data and statistical analysis comply with the recommendations on experimental design and analysis in pharmacology (Curtis et al., 2015).
Data from uptake inhibition assays cannot distinguish whether test drugs act as non‐transported inhibitors or transportable substrates, which evoke release (Scholze et al., 2000; Sitte et al., 2000; Baumann et al., 2013). Therefore, mephedrone and its metabolites were tested in release assays to further explore their interaction with transporters. The release assays were performed with the same transporter‐expressing HEK293 cell lines described above and used a superfusion system (Sitte et al., 2000). As described previously, efflux of preloaded [^3H]‐MPP^+ or [^3H]‐5‐HT was monitored in the presence or absence of monensin (10 μM) (Scholze et al., 2000). […]

[3] = target: T3, SERT (Rattus norvegicus, UniProt P31652); test: Transporter release assay in rat brain synaptosomes, SERT; format: biochemical; conditions: [3H]-5-HT; for EC50: mean (95% confidence interval)
T3 construct: a native tissue preparation that contains plasma membrane transporters in situ; from tissue; host or cells: rat whole brain minus striatum and cerebellum, synaptosomes
T3 sequence (P31652 whole entry): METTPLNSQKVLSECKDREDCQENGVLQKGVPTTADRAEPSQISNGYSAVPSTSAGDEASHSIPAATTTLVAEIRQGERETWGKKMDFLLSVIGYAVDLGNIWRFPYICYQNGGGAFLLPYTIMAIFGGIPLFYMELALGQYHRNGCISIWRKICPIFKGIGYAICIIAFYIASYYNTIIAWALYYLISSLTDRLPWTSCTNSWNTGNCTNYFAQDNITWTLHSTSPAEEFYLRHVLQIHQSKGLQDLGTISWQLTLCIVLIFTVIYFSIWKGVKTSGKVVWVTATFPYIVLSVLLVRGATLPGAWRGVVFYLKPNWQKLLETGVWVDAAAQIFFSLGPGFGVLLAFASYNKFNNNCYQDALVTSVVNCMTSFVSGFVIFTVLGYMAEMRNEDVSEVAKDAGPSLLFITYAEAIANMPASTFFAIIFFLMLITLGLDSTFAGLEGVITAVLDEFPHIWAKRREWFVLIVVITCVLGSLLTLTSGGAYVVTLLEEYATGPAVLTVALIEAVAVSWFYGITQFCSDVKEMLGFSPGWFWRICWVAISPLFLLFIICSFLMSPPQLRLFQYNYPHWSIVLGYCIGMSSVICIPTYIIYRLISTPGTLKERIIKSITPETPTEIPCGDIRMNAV
Experimental: The ability of mephedrone and its metabolites to evoke release via DAT, NET and SERT was determined in rat brain synaptosomes as previously described (Baumann et al., 2012). Rats were killed with CO2, decapitated, and brains were rapidly removed and dissected on ice. Synaptosomes were prepared from striatum for DAT assays, whereas synaptosomes were prepared from whole brain minus striatum and cerebellum for the NET and SERT assays. [^3H]‐MPP^+ (9 nM) was used as the radiolabelled substrate for DAT and NET, whereas [^3H]‐5‐HT (5 nM) was used as the radiolabelled substrate for SERT. All buffers used in the release assays contained 1 μM reserpine to block vesicular uptake of substrates. The selectivity of assays was optimized for a single transporter by including unlabelled compounds [nomifensine and 1‐(2‐diphenylmethoxyethyl)‐4‐(3‐phenylpropyl)piperazine dihydrochloride (GBR12935) for SERT; GBR12935 and citalopram for NET; citalopram and desipramine for DAT] to prevent the uptake of [^3H]‐MPP^+ or [^3H]‐5‐HT by competing transporters. Synaptosomes were preloaded with radiolabelled substrate in Krebs‐phosphate buffer, which consisted of 126 mM NaCl, 2.4 mM KCl, 0.5 mM KH2PO4, 1.1 mM CaCl2, 0.83 mM MgCl2, 0.5 mM Na2SO4, 11.1 mM glucose, 13.7 mM Na2HPO4, 1 mg·mL^−1 ascorbic acid and 50 μM pargyline (pH = 7.4) for 1 h (steady state). Assays were initiated by adding 850 μL of preloaded synaptosomes to 150 μL of test drug. Dose–response curves were generated using eight different concentrations of mephedrone, nor‐mephedrone or 4‐OH‐mephedrone. Assays were terminated by vacuum filtration, and retained radioactivity was quantified by liquid scintillation counting.
as §3

[4] = target: T4, DAT (Rattus norvegicus, UniProt P23977); test: Transporter release assay in rat brain synaptosomes, DAT; format: biochemical; conditions: [3H]-MPP+, mean (95% confidence interval)
T4 construct: a native tissue preparation that contains plasma membrane transporters in situ; from tissue; host or cells: rat striatum synaptosomes
T4 sequence (P23977 whole entry): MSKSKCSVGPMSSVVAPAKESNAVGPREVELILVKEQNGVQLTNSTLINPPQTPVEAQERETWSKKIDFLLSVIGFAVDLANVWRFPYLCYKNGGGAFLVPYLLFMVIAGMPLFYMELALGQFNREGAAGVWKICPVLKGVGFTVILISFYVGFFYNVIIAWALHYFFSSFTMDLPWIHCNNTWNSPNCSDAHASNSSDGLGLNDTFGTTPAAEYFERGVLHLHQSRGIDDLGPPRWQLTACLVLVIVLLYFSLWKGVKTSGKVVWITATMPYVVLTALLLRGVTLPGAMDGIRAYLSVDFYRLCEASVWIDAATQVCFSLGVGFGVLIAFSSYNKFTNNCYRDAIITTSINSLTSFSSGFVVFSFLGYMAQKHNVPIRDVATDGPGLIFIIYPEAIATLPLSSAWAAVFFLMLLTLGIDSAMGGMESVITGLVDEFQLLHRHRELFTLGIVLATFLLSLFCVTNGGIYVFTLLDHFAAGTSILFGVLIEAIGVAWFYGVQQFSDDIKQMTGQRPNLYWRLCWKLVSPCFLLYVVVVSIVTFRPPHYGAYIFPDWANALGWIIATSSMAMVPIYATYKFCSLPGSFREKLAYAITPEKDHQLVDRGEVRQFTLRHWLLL
Experimental: as §1, §2

[5] = EC50 on transporter mediated efflux, NET
[6] = EC50 on transporter mediated efflux, SERT
[7] = EC50 on transporter mediated efflux, DAT

SMILES	EC50 ([1]; read-out: EC50 on transporter mediated efflux, NET) [nM]	enhancement by monensin of drug-evoked [3H]-MPP+ release at hDAT (AUC) [2]	rightward shift of SERT release curve compared with mephedrone [3] [fold]	EC50 ([3]; read-out: EC50 on transporter mediated efflux, SERT)	EC50 ([4]; read-out: EC50 on transporter mediated efflux, DAT) [nM]	EC50 [1, 5] [nM]	EC50 [3, 6]	EC50 [4, 7] [nM]
CNC(C)C(=O)c1ccc(CO)cc1.Cl (stereo not shown) [4‐OH‐mephedrone, 1‐(4‐(hydroxymethyl)phenyl)‐2‐(methylamino)propan‐1‐one hydrochloride]	150	significant	10	2000 nM and 2010 nM	190			
CNC(C)C(=O)c1ccc(C)cc1.Cl (stereo not shown) [Mephedrone, 2‐Methylamino‐1‐(p‐tolyl)propan‐1‐one hydrochloride]		significant				90	210 nM	52
Cc1ccc(C(=O)C(C)N)cc1.Cl (stereo not shown) [Nor‐mephedrone, 2‐amino‐1‐(p‐tolyl)propan‐1‐one hydrochloride]		significant				100	200 nM and 210 nM	220
